Test results: patent US8575156B2, “Cyclic inhibitors of 11β-hydroxysteroid dehydrogenase 1” (Vitae Pharmaceuticals, Inc., priority 2007, dated 2013)
Read-outs that look alike come from different tables or passages of the source.

Tests used:
11β-HSD1 [1] = molecular target: T1, 11β-HSD1 (Homo sapiens, UniProt P28845); settings: 0.1 µM
11β-HSD1 [2] = molecular target: T1, 11β-HSD1; assay: biochemical; settings: IC50 Range
[3] = Biological Test Example 1, 100 nM compound
[4] = Biological Test Example 1, microsomes from CHO cells overexpressing human 11β-HSD1
[5] = Biological Test Example 1, 100 nM

T1 sequence (P28845 whole entry): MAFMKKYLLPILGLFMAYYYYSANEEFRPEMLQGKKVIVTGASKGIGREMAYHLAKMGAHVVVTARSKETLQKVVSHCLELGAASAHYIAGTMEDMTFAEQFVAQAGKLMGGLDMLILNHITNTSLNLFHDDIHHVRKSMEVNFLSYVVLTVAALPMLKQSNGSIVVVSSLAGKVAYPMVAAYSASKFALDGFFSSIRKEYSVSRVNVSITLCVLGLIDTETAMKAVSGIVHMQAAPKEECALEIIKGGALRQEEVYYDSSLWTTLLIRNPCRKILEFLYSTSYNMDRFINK

Compound	Average % inhibition at 100 nM (11β-HSD1 [1]; [3])	IC50 (11β-HSD1 [2]; [4])	Average % inhibition at 100 nM (11β-HSD1 [1]; [5])	Average % inhibition at 100 nM (11β-HSD1 [1])	IC50 (11β-HSD1 [2])
COc1ccc([C@H](C)N2CCC(CCCO)(c3ccc(F)cc3)OC2=O)cc1 (single isomer, unassigned) [EXAMPLE 201 Isomer 1]	93.2%	< 100 nM			
COc1ccc([C@H](C)N2CCC(CCCO)(c3ccc(F)cc3)OC2=O)cc1 (single isomer, unassigned) [EXAMPLE 201 Isomer 2]	27.0%	> 100 nM			
CC(C)(C)OC(=O)N1CCC(N2CCC(CCCO)(c3ccccc3)OC2=O)C1 (single isomer, unassigned) [EXAMPLE 208 Isomer 1]	76.6%	< 100 nM			
CC(C)(C)OC(=O)N1CCC(N2CCC(CCCO)(c3ccccc3)OC2=O)C1 (single isomer, unassigned) [EXAMPLE 208 Isomer 2]	38.5%	> 100 nM			
CC(C)(C)OC(=O)N1CCC(N2CCC(CCCO)(c3ccccc3)OC2=O)C1 (single isomer, unassigned) [EXAMPLE 208 Isomer 3]	64.6%	< 100 nM			
CC(C)(C)OC(=O)N1CCC(N2CCC(CCCO)(c3ccccc3)OC2=O)C1 (single isomer, unassigned) [EXAMPLE 208 Isomer 4]	29.3%	< 100 nM			
CC(C)C1(CC(O)CO)CCN([C@@H](C)c2ccc(-c3ccc(F)cc3F)cc2)C(=O)O1 (single isomer, unassigned) [EXAMPLE 223 Isomer 1]	94.2%	< 100 nM			
CC(C)C1(CC(O)CO)CCN([C@@H](C)c2ccc(-c3ccc(F)cc3F)cc2)C(=O)O1 (single isomer, unassigned) [EXAMPLE 223 Isomer 2]	97.1%	< 100 nM			
CC(C)C1(CC(O)CO)CCN([C@@H](C)c2ccc(-c3ccc(F)cc3F)cc2)C(=O)O1 (single isomer, unassigned) [EXAMPLE 223 Isomer 3]	27.8%	> 100 nM			
CC(C)C1(CC(O)CO)CCN([C@@H](C)c2ccc(-c3ccc(F)cc3F)cc2)C(=O)O1 (single isomer, unassigned) [EXAMPLE 223 Isomer 4]	52.5%	> 100 nM			
C[C@@H](c1ccc(-c2ccc(F)cc2F)cc1)N1CCC(CCO)(c2cccs2)OC1=O (single isomer, unassigned) [EXAMPLE 233 Isomer 1]	98.9%	< 100 nM			
C[C@@H](c1ccc(-c2ccc(F)cc2F)cc1)N1CC[C@](CC(O)CN(C)C)(c2ccc(F)cc2)OC1=O (single isomer, unassigned) [EXAMPLE 273 Isomer 1]	53.6%	< 100 nM			
C[C@@H](c1ccc(-c2ccc(F)cc2)cc1)N1CC[C@](CC(O)CNS(C)(=O)=O)(c2ccc(F)cc2)OC1=O (single isomer, unassigned) [EXAMPLE 277 Isomer 1]				91.1%	< 100 nM

The next lines start with results.

Average % inhibition at 100 nM (11β-HSD1 [1]; [3])	IC50 (11β-HSD1 [2]; [4])	Average % inhibition at 100 nM (11β-HSD1 [1]; [5])	Compound	Average % inhibition at 100 nM (11β-HSD1 [1])	IC50 (11β-HSD1 [2])
17.9%	> 100 nM		C[C@@H](c1ccc(-c2ccc(F)cc2F)cc1)N1CC[C@](CC(O)CN(C)C)(c2ccc(F)cc2)OC1=O (single isomer, unassigned) [EXAMPLE 273 Isomer 2]		
83.1%	< 100 nM		C[C@@H](c1ccc(-c2ccc(F)cc2F)cc1)N1CC[C@](CC(O)CNC(N)=O)(c2ccc(F)cc2)OC1=O (single isomer, unassigned) [EXAMPLE 276 Isomer 1]		
35.4%	> 100 nM		C[C@@H](c1ccc(-c2ccc(F)cc2F)cc1)N1CC[C@](CC(O)CNC(N)=O)(c2ccc(F)cc2)OC1=O (single isomer, unassigned) [EXAMPLE 276 Isomer 2]		
86.6%	< 100 nM		C[C@@H](c1ccc(-c2ccc(F)cc2)cc1)N1CC[C@](CC(O)CN(C)S(C)(=O)=O)(c2ccc(F)cc2)OC1=O (single isomer, unassigned) [EXAMPLE 278 Isomer 1]		
94.1%	< 100 nM		COc1ccc([C@H](C)N2CCC(CC(O)CO)(c3ccccc3)OC2=O)cc1 (single isomer, unassigned) [EXAMPLE 286 Isomer 1]		
94.5%	< 100 nM		COc1ccc([C@H](C)N2CCC(CC(O)CO)(c3ccccc3)OC2=O)cc1 (single isomer, unassigned) [EXAMPLE 286 Isomer 2]		
70.5%	< 100 nM		COc1ccc([C@H](C)N2CCC(CC(O)CO)(c3ccccc3)OC2=O)cc1 (single isomer, unassigned) [EXAMPLE 286 Isomer 3]		
29.3%	> 100 nM		COc1ccc([C@H](C)N2CCC(CC(O)CO)(c3ccccc3)OC2=O)cc1 (single isomer, unassigned) [EXAMPLE 286 Isomer 4]		
	< 100 nM	97.8%	COc1ccc([C@H](C)N2CCC(CCCO)(C(C)C)OC2=O)cc1 (single isomer, unassigned) [EXAMPLE 332 Isomer 1]		
	> 100 nM	32.2%	COc1ccc([C@H](C)N2CCC(CCCO)(C(C)C)OC2=O)cc1 (single isomer, unassigned) [EXAMPLE 332 Isomer 2]		
	< 100 nM	96.2%	COc1ccc([C@H](C)N2CCC(CCC(N)=O)(C(C)C)OC2=O)cc1 (single isomer, unassigned) [EXAMPLE 333 Isomer 1]		
	> 100 nM	9.1%	COc1ccc([C@H](C)N2CCC(CCC(N)=O)(C(C)C)OC2=O)cc1 (single isomer, unassigned) [EXAMPLE 333 Isomer 2]		
	< 100 nM	96.6%	CC(C)C1(CCC(N)=O)CCN([C@@H](C)c2ccc(Cl)cc2)C(=O)O1 (single isomer, unassigned) [EXAMPLE 334 Isomer 1]		
	> 100 nM	31.9%	CC(C)C1(CCC(N)=O)CCN([C@@H](C)c2ccc(Cl)cc2)C(=O)O1 (single isomer, unassigned) [EXAMPLE 334 Isomer 2]		
	< 100 nM	48.2%	C[C@@H](c1ccc(Br)cc1)N1CCC(CCCO)(C(C)(C)C)OC1=O (single isomer, unassigned) [EXAMPLE 335 Isomer 1]		
	< 100 nM	50.8%	C[C@@H](c1ccc(-c2ccc(F)cc2F)cc1)N1CCC(CCO)(C(C)(C)C)OC1=O (single isomer, unassigned) [EXAMPLE 336 Isomer 1]		
	< 100 nM	97.5%	C[C@@H](c1ccc(Br)cc1)N1CCC(CCO)(c2ccc(F)cc2F)OC1=O (single isomer, unassigned) [EXAMPLE 365 Isomer 1]		
